Measurements: PMC8704709, “Improved Anticancer Activities of a New Pentafluorothio-Substituted Vorinostat-Type Histone Deacetylase Inhibitor” (Pharmaceuticals, 2021)

How the values were obtained:
Hep-G2 cells [1] = test: Unspecific cytotoxicity (LDH release); format: cell-based, human; details: 1–10 µM, 3 and 24 h
Hep-G2 cells [2] = test: Western blot in Hep-G2 cells (acetyl-H3, Apaf-1, Bcl-2); format: cell-based, human; details: 24 h
Experimental: Western blots were performed as described earlier. Cells were seeded in 100 mm petri dishes, grown to almost confluency, treated for 24 h, washed and frozen, followed by lysis with RIPA Buffer, added with one cOmplete™ Mini protease Inhibitor tablet/10 mL (Roche), and quantification with Pierce^TM BCA Protein Assay Kit (Thermo Fisher Scientific). Thereafter protein levels were normalized to untreated controls so equal protein loading of 20 µg/lane. Laemmli Buffer and β-mercaptoethanol were added before probes were desaturated at 96 °C for 10 min. First, 7.5% or 12% SDS gels (Biorad, Munich, Germany) were loaded with proteins and electrophoresis was done. Thereafter, proteins were transferred to activated polyvinylidene difluoride membranes (PVDF) by electroblotting. Finally, the membranes were blocked with 1% BSA and incubated with primary antibodies over night at 4 °C. […] Only the Jurkat cells had already a high level of α-tubulin in untreated cells and, thus, drug-induced changes were not detectable in these cells.
(§1) Blots were washed three times with 1% TBS-Tween and incubated with anti-mouse or anti-rabbit peroxidase-coupled anti-IgG secondary antibodies (1:5000–1:10,000) at room temperature for 60 min. Subsequently, antibody bondage was illustrated using Clarity and Clarity Max ECL Western Blotting Substrates (Biorad, Munich, Germany) for detection and Celvin-S developer (Biostep, software SnapAndGo Vs 1.8.1) for development. […] Values were normalized to β-actin expression, which served as a loading control and compared to untreated control expressions which was set at 1. The mean ± SEM of the relative values to control are illustrated with Graph Pad Prism 8.

DU145 cells [3] = test: Unspecific cytotoxicity (LDH release); format: cell-based, human; details: 1–10 µM, 3 and 24 h
Experimental: To exclude unspecific cytotoxicity as the driving mode of action for antiproliferative effects, the release of lactate dehydrogenase (LDH) from DU145 cells was determined after 3 h and 24 h of treatment using the Cytotoxicity Detection Kit PLUS LDH (Roche Diagnostics GmbH, Mannheim, Germany). The assay was performed as described earlier. Cytotoxicity was determined by subtracting the percentage of LDH release into the supernatant under control conditions of those from treated samples. Measurements were performed in duplicate in n = 3 independent experiments and mean percentage changes ± SEM as compared to controls are shown.

DU145 cells [4] = test: Western blot in DU145 cells (acetyl-H3, PARP, EGFR, P-mTOR); format: cell-based, human; details: 24 h
Experimental: Western blots were performed as described earlier. Cells were seeded in 100 mm petri dishes, grown to almost confluency, treated for 24 h, washed and frozen, followed by lysis with RIPA Buffer, added with one cOmplete™ Mini protease Inhibitor tablet/10 mL (Roche), and quantification with Pierce^TM BCA Protein Assay Kit (Thermo Fisher Scientific). Thereafter protein levels were normalized to untreated controls so equal protein loading of 20 µg/lane. Laemmli Buffer and β-mercaptoethanol were added before probes were desaturated at 96 °C for 10 min. First, 7.5% or 12% SDS gels (Biorad, Munich, Germany) were loaded with proteins and electrophoresis was done. Thereafter, proteins were transferred to activated polyvinylidene difluoride membranes (PVDF) by electroblotting. Finally, the membranes were blocked with 1% BSA and incubated with primary antibodies over night at 4 °C.
as §1

[5] = test system: caspase-3 activity in DU145 cells; test: Apoptosis-specific caspase-3 activation (AC-DEVD-AMC cleavage); format: cell-based, human; details: 24 h treatment, 1–10 µM
Experimental: (§2) Changes in caspase-3 activity were measured by the cleavage of the fluorogenic substrate AC-DEVD-AMC (EMD Millipore, Billerica, MA, USA), as described previously. […] Subsequently, the lysates were incubated for 1 h at 37 °C with a substrate solution containing 20 μg/mL AC-DEVD-AMC, 20 mM HEPES, 10% glycerol and 2 mM DTT at pH 7.5.

[6] = test system: caspase-3 activity in Hep-G2 cells; test: as above; format: cell-based, human; details: 24 h treatment, 1–10 µM
Experimental: as §2

Hep-G2 cells [7] = test: Cytosolic ROS formation (CellROX Orange fluorescence microscopy); format: cell-based, human; details: 6–24 h
Experimental: (§3) Untreated cells incubated with 1.6 mM H2O2 for 30 min served as positive controls. CellROX® Orange reagent (1 µM) was applied, when adding the test compounds. Formation of ROS was measured after 3 h, 6 h, 12 h (not shown) and 24 h using ZOE™ Fluorescent Cell Imager (Biorad, Munich, Germany). n = 3 independent experiments performed in triplicate for each condition.

DU145 cells [8] = test: as above; format: cell-based, human; details: 6–24 h
Experimental: as §3

SMZ1 cells = test: IC50 by Annexin-V/7AAD dual staining, flow cytometry; format: cell-based; details: Homo sapiens, as determined after 48 h, means ± SEM, n ≥ 3, read-out: Growth inhibitory activity IC50, SMZ1
Experimental: Stock solutions (10 mM) prepared by dissolution in DMSO were stored at −20 °C. Working solutions were always freshly prepared before each experiment by dilution of stock solution with medium. The final DMSO concentration never exceeded 0.25%. Treatment-induced changes in cell number were determined by crystal violet (N-hexamethylpararosaniline from Sigma Aldrich) staining. 1000 cells/well (DU145) or 1500 cells/well (Hep-G2) were seeded in 96-well plates and maintained for adherence in an incubator (37 °C, 5% CO2, humidified atmosphere) for 48 h prior to the beginning of the treatment. […] Thereafter, the cells were fixed with 1% glutaraldehyde and stained with 0.1% crystal violet. The unbound dye was removed by rinsing with water. Bound crystal violet was solubilized with 0.2% Triton X-100 (Sigma-Aldrich). Light extinction of crystal violet, which increases linearly with the cell number, was analyzed at 570 nm using an ELISA-Reader (Dynex Technologies, Denkendorf, Germany). For T-cell leukemia/lymphoma cell lines apoptosis was determined using dual staining for Annexin-V and 7AAD via flow cytometry.

Structure (SMILES): O=C(CCCCCCC(=O)Nc1ccccc1)NO [SAHA, suberoylanilide hydroxamic acid, reference compound]
- LDH release (unspecific cytotoxicity) (Hep-G2 cells [1]): no relevant induction of unspecific cytotoxicity
- acetylated histone H3 level (Hep-G2 cells [2]): dose-dependent rise of H3 acetylation
- LDH release (unspecific cytotoxicity) (DU145 cells [3]): no relevant induction of unspecific cytotoxicity
- EGFR protein expression (DU145 cells [4]): pronounced and significant suppression in the expression of the EGFR
- acetylated histone H3 level (DU145 cells [4]): dose-dependent rise of H3 acetylation
- caspase-3 activation [5]: comparable caspase-3 inductions
- caspase-3 activation [6]: comparable caspase-3 inductions
- cytosolic ROS formation (Hep-G2 cells [7]): much weaker ROS increase
- cytosolic ROS formation (DU145 cells [8]): much weaker ROS increase
- IC50 (SMZ1 cells): 2.87 ± 0.33 µM
